Measured values: patent publication US20160324795A1, “SILIBININ NANOPARTICLE AND A METHOD OF TREATING HEPATITIS C THEREOF” (Kaohsiung Medical University, priority 2014, published 2016)

Experiments:
[1] = tested on: hepatitis C virus; experiment: HCVcc infectivity in Huh-7 cells infected by hepatitis C virus (luminescence); assay type: cell-based
Method: Huh-7 cells are infected by hepatitis C virus for 3 hours. After infection, surplus hepatitis C virus are washed, followed by adding a medium with 10% fetal bovine serum (FBS) and the treatment shown in TABLE 5 for 72 hours. The resulting media is collected and the luminescence level is analyzed to evaluate HCVcc infectivity. Specifically, group F2 is treated with dimethyl sulfoxide (DMSO), group F3 is treated with interferon-α (IFN-α), a conventional medication for treating hepatitis C, group F4 is treated with PVP, group F5 is treated with the conventional silibinin dissolved in DMSO, group F6 is treated with the conventional silibinin dissolved in water, and group F7 is treated with the silibinin nanoparticle of the invention dissolved in water.

[2] = Solubility in solutions mimicking blood (pH 7.4) and stomach (pH 1.2); assay type: physicochemical; details: pH 7.4, after 120 minutes
Excerpt: A solution with pH 7.4 mimics the environment of the blood and a solution with pH 1.2 mimics the environment of the stomach.
That is, compared with the conventional silibinin, the silibinin nanoparticle of the invention has improved blood solubility.

[3] = tested on: Sprague-Dawley (SD) male rats; experiment: Safety test in SD rats, administration via gastrostomy for 15 days; details: rat, in vivo
Method: (§1) Sprague-Dawley (SD) male rats (6 week-old) purchased from BioLASCO Taiwan Co., Ltd. are used in trials (D) and (E). The SD rats are housed on a 12-hours light and 12-hours dark cycle in an animal room kept at a constant temperature of 25±1° C. and constant humidity of 55±5%. The SD rats are housed for several days before being administered the silibinin nanoparticle of the invention via gastrostomy in a dosage shown in TABLE 3.
With reference to FIG. 6B, after being administered the silibinin nanoparticle of the invention for 15 days, all of the SD rats of groups D0 to D2 show a similar trend of increasing body weights.

[4] = Serum silibinin concentration in SD rats by HPLC; assay type: in vivo, rat
Method: as §1
After administration for 5, 15, 30, 60, 120, 360, 720, and 1440 minutes, 0.5 mL of blood samples are collected. The blood samples stand at room temperature for coagulation, followed by centrifugation to obtain serum. High-performance liquid chromatography (HPLC) is performed to analyze serum silibinin concentration.

[5] = Tissue silibinin concentration in SD rats 24 hours after administration by HPLC; assay type: in vivo, rat
Method: as §1
Furthermore, after being administered silibinin or silibinin nanoparticle for 24 hours, the SD rats of groups E1 and E2 are dissected and organs of heart, liver, spleen, lung, and kidney are collected. The collected organs are homogenized by a saline buffer, followed by extraction of silibinin with acetonitrile. The extracted silibinin is analyzed by HPLC.

[6] = 100 mg/kg silibinin (nanoparticle 200 mg/kg with 100 mg of silibinin)

IFN-α
HCVcc infectivity ([1]; 72 hours treatment): 4.2 log10 RLU

COc1cc(C2Oc3cc(C4Oc5cc(O)cc(O)c5C(=O)C4O)ccc3OC2CO)ccc1O (centres unmarked) [silibinin, 3,5,7-trihydroxy-2-[3-(4-hydroxy-3-methoxyphenyl)-2-(hydroxymethyl)-2,3-dihydro-1,4-benzodioxin-6-yl]-2,3-dihydrochromen-4-one]
dissolution in solution mimicking the environment of the blood [2]: cannot dissolve
safe dosage (as silibinin content) [3]: 5 mg/kg body weight per day
highest level of serum silibinin concentration [4, 6]: 170 ng/mL
time to highest level of serum silibinin concentration [4, 6]: 15 min
concentration at 1440 minutes ([4]; male, Sprague-Dawley, rat, serum, 100 mg/kg body weight/day, 1440 minutes after administration): 0 ng/mL
tissue distribution of silibinin (heart, liver, spleen, lung, kidney) [5]: silibinin only exists in the lung
HCVcc infectivity ([1]; 72 hours, dissolved in DMSO): 4.9 log10 RLU
